Bounds are passed on as bounds.

The source of these data is US8470763B2, “Alpha-amino-N-substituted amides, pharmaceutical composition containing them and uses thereof” (Shanghai Institute of Materia Medica Chinese Academy of …, priority 2007, dated 2013).

In data set [1] the test system is heterograft of MDA-MB-4355 human breast cancer cells. Conditions: background; cited from earlier work.
In data set [2] the test system is A549 (Lung Cancer). In words: SRB assay, A549. The following applies: Homo sapiens, 72 h, read-out: IC50 (μM) (mean ± SD). Format: cell-based. As to the method: (§1) Experimental method: The antineoplasmic activities in vitro of the compounds were determined by SRB assay. The detailed procedure was as follows. The cells in the logarithmic growth phase were inoculated on a 96-well microculture plate with a suitable density (100 μl/well), and allowed to attach overnight, followed by addition of the compound at different concentrations to be treated for 72 h. For each concentration, the test was carried out in triplicate wells, and included control wells containing the aqueous medium of normal saline and a blank well containing all medium without cells for zeroing. After cultured overnight, the cells were treated with the compound at different concentrations for 72 h. After the treatment, the culture medium was removed, and the cells were fixed with 10% (wt/vol) trichloroacetic acid (100 μL/well) at 4° C. for 1 h. The cells were then washed with distilled water for 5 times, and died at room temperature, followed by addition of a SRB solution (4 mg/mL, dissolved in 1% glacial acetic acid) at 100 μL/well. The cells were incubated and stained at room temperature for 15 min, then washed with 1% glacial acetic acid for 5 times to remove the uncombined SRB, and died at room temperature. 100 μL of 10 mM Tris solution was added in each well, and the Optical Density (OD) were measured at a wavelength of 560 nm on a VERSMax ELISA Reader (Molecule Devices). The growth inhibition of the compound against tumor cells was calculated according to the following equation: Growth inhibition (%)=(ODcontrol−ODtreated)/ODcontrol×100%.
(§2) IC50 (the concentration of the sample compound that is required for 50% inhibition of cell growth) was calculated by using the Logit method based on the measurement, and each test was repeated for 3 times to calculate the mean value and standard deviation.
(In SRB staining, fixed cells bind dye roughly in proportion to their protein.)

In data set [3] the test system is 7404 (Liver Cancer). Kind of data set: SRB assay, 7404. Conditions: 72 h, read-out: IC50 (μM) (mean ± SD). In kind it is cell-based. The procedure:
as §1, §2

For data set [4], the system named is BEL-7402 (Liver Cancer). Kind of data set: SRB assay, BEL-7402. Conditions: Homo sapiens, 72 h, read-out: IC50 (μM) (mean ± SD). Format: cell-based. As to the method: as §1, §2
Data set [5] concerns SMMC-7721 (Liver Cancer). In words: SRB assay, SMMC-7721. The following applies: Homo sapiens, 72 h, read-out: IC50 (μM) (mean ± SD). In kind it is cell-based. As to the method:
as §1, §2

For data set [6], the system named is HepG2 (Liver Cancer). In words: SRB assay, HepG2. Format: cell-based. Conditions: Homo sapiens, 72 h, read-out: IC50 (μM) (mean ± SD). As to the method: as §1, §2
Data set [7] has as its system HMEC (Others). Kind of data set: SRB assay, HMEC. Format: cell-based. Conditions: Homo sapiens, 72 h, read-out: IC50 (μM) (mean ± SD). As to the method: as §1, §2
Data set [8] has as its system MDA-MB-435 (Breast Cancer). Kind of data set: SRB assay, MDA-MB-435. Format: cell-based. The following applies: Homo sapiens, 72 h, read-out: IC50 (μM) (mean ± SD). As to the method: as §1, §2
For data set [9] the following is noted: background; cited from earlier work.
The conditions of data set [10]: clinical study entered 2001; cited from earlier work.
Data set [11] concerns Zip177 (Liver Cancer). In words: SRB assay, Zip177. Conditions: 72 h, read-out: IC50 (μM) (mean ± SD). In kind it is cell-based. As to the method:
as §1, §2

Data set [12] deals with HPAF-II (Pancreatic Cancer). In words: SRB assay, HPAF-II. In kind it is cell-based. Conditions: Homo sapiens, 72 h, read-out: IC50 (μM) (mean ± SD). As to the method:
as §1, §2

Data set [13] relates to SGC-7901 (Gastric Cancer). In words: SRB assay, SGC-7901. In kind it is cell-based. Conditions: Homo sapiens, 72 h, read-out: IC50 (μM) (mean ± SD). The procedure: as §1, §2
The test system of data set [14] is HCT-116 (Colon Cancer). Kind of data set: SRB assay, HCT-116. Format: cell-based. Conditions: Homo sapiens, 72 h, read-out: IC50 (μM) (mean ± SD). As to the method:
as §1, §2

Data set [15] concerns MDA-MB-435S human breast cancer cells. Kind of data set: MTT assay, proliferation of MDA-MB-435S cells. In kind it is cell-based. The following applies: Homo sapiens, 72 h, read-out: Cell Survival Rate IC50. As to the method: The experiments for evaluating the antineoplasmic activities of the compounds according to the present invention were carried out, and the compounds' antineoplasmic activities in vitro was evaluated by determining the inhibitory activities thereof against the proliferation of MDA-MB-435S human breast cancer cells.
The antineoplasmic activities were determined by using the MTT assay, which is based on the metabolic reduction of 3-(4,5-dimethylthylthiazol-2-yl)-2,5-diphenyl tetrazolium bromide (MTT). The dehydrogenases, which are related to NADP (niacinamide adenine dinucleotide phosphate, coenzyme) and present in mitochondrions of living cells, can reduce the yellow MTT to an insoluble, dark purple formazan. […] After the formazan is dissolved in DMSO, the optical density is determined on an ELISA Reader at the wavelength of 550/690 nm.
The adhered MDA-MB-4355 cells in logarithmic growth phase, were digested by 0.05% trypsogen, counted and formulated into a cell suspension with a medium. After counted, the suspension was inoculated on a 96-well plate with 3000 cells and 100 μl medium per well. The inoculated 96-well plate was placed overnight in an incubator at 37 with 5% CO2 to allow the cells to adhere to the wall. On the next day, the administration of the drugs started. Before the administration, into some of the control wells, each was added 20 μl of the MTT solution (5 mg/ml) without removing the medium therein. After incubated for 3 h, the absorption at A550/690 was recorded as the initial cell concentration. For the drug wells, each was added into 100 μl of medium containing 2 μl of compound solution. For the control wells which use DMSO as background control, each was also added into 100 μl of medium containing 2 μl of DMSO. In addition, each experiment was carried out with adriamycin as the positive control. Subsequently, the 96-well plate was incubated in an incubator at 37 with 5% CO2 for 72 h. each compound was tested in triplicate wells (6 μl of compound solution was put into a sterilized eppendorf centrifuge tube, then 300 μl of medium was added and mixed well, and the mixture was distributed into 3 wells respectively), and at six concentrations which form a gradient. 3 days (72 h) later, 40 μl of MTT solution (5 mg/ml) was put into each well directly (without sucking off the medium therein), and the plate was incubated in the incubator for 3 h and then taken out. The liquid in each well was sucked off, and then 100 μl of DMSO was put into each well to dissolve the crystal completely with slight shake. The absorbance of the solution in each well was determined at 550/690 nm on an ELISA Reader as the cell density after treated with the compound. The growth inhibition of compound against breast cancer cells MDA-MB-435S was represented by the cell survival rate, and IC50 was determined from the profile of cell survival rate vs compound concentration. The calculating formula was as follows: cell survival rate=[(cells+compound)A550/690/(cells+compound vector DMSO)A550/690]×100%
On the technique in general: Tetrazolium dyes change colour on reduction, which living cells bring about.

The test system of data set [16] is HO-8910 (Ovarian Cancer). Kind of data set: SRB assay, HO-8910. Format: cell-based. The following applies: 72 h, read-out: IC50 (μM) (mean ± SD). The procedure: as §1, §2
In data set [17] the test system is human tumor cells. Conditions: background; cited from earlier work.
Data set [18] concerns DU145 (Prostatic Cancer). Kind of data set: SRB assay, DU145. In kind it is cell-based. Conditions: Homo sapiens, DU-145, 72 h, read-out: IC50 (μM) (mean ± SD). As to the method: as §1, §2

On to `CO[C@@H](C(=O)N[C@H]1CC[C@@H](OC(=O)C2CCCCC2)CNC1=O)[C@H](O)[C@@H](O)[C@H](O)/C=C/C(C)(C)C` [LAF389, reference compound], for which the “growth of heterograft in vivo” value in data set [1] was “comparable to Bengamide B”. Also, the concentration for half-maximal inhibition (IC50) (as a rule, the midpoint of a concentration-inhibition curve) in [2] was 0.05 ± 0.01 µM; in data set [3], > 20 µM; in data set [4], 0.56 ± 0.4 µM; in data set [5] it was 1.25 ± 0.76 µM; in data set [6], 0.21 ± 0.09 µM; in data set [7], 0.83 ± 0.45 µM. Further, the 50% inhibitory concentration (IC50) came out at 0.29 ± 0.02 µM in [8]; 2.79 ± 0.15 µM in [11]; 3.23 ± 2.13 µM in [12]; 4.96 ± 0.4 µM in data set [13]; 0.63 ± 0.18 µM in [14]; 0.61 µM in data set [15]. The IC50 was > 20 µM in data set [16] and 0.42 ± 0.21 µM in data set [18]. For the same molecule, the solubility entry in data set [9] was “good solubility”. In data set [10], the “side effects in clinical study” value is reported as “side effects such as taste disturbance, blurred vision”. Moreover, the “therapeutic effects in clinical study” value in data set [10] is “did not possess the foreseen therapeutic effects”. For the same molecule, the “activities against human tumor cells in vitro” value in [17] was “comparable to Bengamide B”.
